What was measured:
Format in all cases: cell-based
[1] = biological target: Met (Homo sapiens, UniProt P08581); assay: Met autophosphorylation ELISA in PC-3 cells; set-up: endogenous in cells; host or cells: PC-3 prostate cancer cells (ATCC #CRL-1435); conditions: Table 3 Cellular Activities, HGF-stimulated, phospho-Met ELISA, read-out: c-Met IC50
Description: PC-3 prostate cancer cells (ATCC #CRL-1435) were seeded at 4×10^4 cells/well onto 24-well plates (Greiner #662165), in DMEM (Thermo Fisher #11995-040) containing 10% FBS (Thermo Fisher #26140-079), 1% MEM NEAA (Thermo Fisher #11140-050), 1% GlutaMax (Thermo Fisher #35050-061), and 1% Penicillin Streptomycin (Thermo Fisher #15140-122). PC-3 cells were incubated at 37° C., 5% CO2 for 24 h and then starved for 3 h in serum-free medium. Test compounds were serially diluted to produce an 8-point dose curve in fresh serum-free medium to a final concentration of 0.3% DMSO (vehicle) and added to the cells and incubated for 1 h. Cells were then stimulated with 100 ng/mL recombinant human HGF (R&D Systems #294-HG-250) for 10 min, washed with cold PBS, and immediately lysed with 130 μL of cold 1× lysis buffer [20 mM Tris, 137 mM sodium chloride, 2 mM EDTA, 10% glycerol, 1% NP-40 alternative, 1 mM activated sodium orthovanadate, 1 mM PefaBloc SC (Sigma-Aldrich #11429868001), protease/phosphatase inhibitor tablet (Thermo Fisher #A32959)]. Lysates were clarified by centrifugation and 100 μL/well added into the PathScan phospho-Met (panTyr) Sandwich ELISA (Cell Signaling Technology #7333). Assay was performed according to manufacturer's instructions. Positive control wells (100% activity) contained HGF-stimulated, DMSO-treated cell lysates. Negative control wells (0% activity) contained HGF-stimulated, reference inhibitor-treated cell lysates. IC50 values were calculated by nonlinear regression analysis using a 4-parameter logistic curve fit in ActivityBase XE (IDBS).

[2] = biological target: T1, Mer (Homo sapiens, UniProt Q12866); assay: Mer autophosphorylation ELISA in transient transfected 293A cells; conditions: Table 3 Cellular Activities; MERTK-transfected 293A cells, phospho-Mer ELISA
T1 construct: host or cells: 293A cells (Thermo Fisher #R70507)
T1 sequence (Q12866 21-999): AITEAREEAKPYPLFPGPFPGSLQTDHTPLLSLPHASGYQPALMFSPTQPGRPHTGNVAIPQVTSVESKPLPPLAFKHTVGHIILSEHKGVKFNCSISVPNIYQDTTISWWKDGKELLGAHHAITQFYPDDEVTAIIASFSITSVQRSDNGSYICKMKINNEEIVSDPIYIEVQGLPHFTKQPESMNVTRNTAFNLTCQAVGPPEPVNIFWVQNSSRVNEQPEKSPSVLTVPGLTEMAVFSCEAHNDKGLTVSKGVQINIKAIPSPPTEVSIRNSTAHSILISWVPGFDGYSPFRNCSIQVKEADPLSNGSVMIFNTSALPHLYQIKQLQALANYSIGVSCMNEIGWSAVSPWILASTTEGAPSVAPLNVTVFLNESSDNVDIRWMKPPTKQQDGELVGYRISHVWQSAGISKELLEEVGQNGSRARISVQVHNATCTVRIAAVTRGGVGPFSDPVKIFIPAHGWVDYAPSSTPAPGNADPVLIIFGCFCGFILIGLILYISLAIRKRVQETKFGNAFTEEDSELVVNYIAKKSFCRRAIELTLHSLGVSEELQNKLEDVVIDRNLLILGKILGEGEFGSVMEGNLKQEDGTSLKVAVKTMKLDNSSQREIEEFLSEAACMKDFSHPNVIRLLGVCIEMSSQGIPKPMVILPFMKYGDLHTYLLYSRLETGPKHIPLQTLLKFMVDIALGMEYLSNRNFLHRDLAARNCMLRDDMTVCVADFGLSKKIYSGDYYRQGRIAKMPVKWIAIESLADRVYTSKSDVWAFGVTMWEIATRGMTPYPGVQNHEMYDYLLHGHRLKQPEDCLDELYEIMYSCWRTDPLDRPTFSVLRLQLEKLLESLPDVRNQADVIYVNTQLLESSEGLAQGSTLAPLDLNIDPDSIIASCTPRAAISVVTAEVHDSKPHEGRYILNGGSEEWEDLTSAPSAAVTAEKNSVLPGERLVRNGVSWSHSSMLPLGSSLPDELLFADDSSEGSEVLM
Description: 293A cells (Thermo Fisher #R70507) were seeded at 1.5×10^6 cells/well onto 100 mm dish (Greiner #664169), in DMEM (Thermo Fisher #11995-040) containing 10% FBS (Thermo Fisher #26140-079), 1% MEM NEAA (Thermo Fisher #11140-050), 1% GlutaMax (Thermo Fisher #35050-061), and 1% Penicillin Streptomycin (Thermo Fisher #15140-122). 293A cells were incubated at 37° C., 5% CO2 for 24 h and then transfected with 6μg MERTK DNA (Genecopoeia #EX-Z8208-M02) using TransIT LT1 transfection reagent (Mirus-Bio #MIR2305). After 24 h incubation, the transfected 293A cells were seeded at 1×10^5 cells/well onto 96-well plates (Corning #3904) in DMEM growth medium overnight. Test compounds were serially diluted to produce an 8-point dose curve in fresh serum-free medium to a final concentration of 0.3% DMSO (vehicle) and added to the cells and incubated for 1 h. Cells were then immediately lysed with 150 μL of cold 1× lysis buffer […], 137 mM sodium chloride, 2 mM EDTA, 10% glycerol, 1% NP-40 alternative, 1 mM activated sodium orthovanadate, 1 mM PefaBloc SC (Sigma-Aldrich #11429868001), protease/phosphatase inhibitor tablet (Thermo Fisher #A32959)]. Lysates were clarified by centrifugation and 50 μL/well added into the human phospho-Mer DuoSet IC ELISA (R&D Systems #DYC2579-2). Assay was performed according to manufacturer's instructions and sample phospho-Mer concentrations were extrapolated using human phospho-Mer control (R&D Systems #841793) as a standard. Positive control wells (100% activity) contained DMSO-treated cell lysates. Negative control wells (0% activity) contained reference inhibitor-treated cell lysates. IC50 values were calculated by nonlinear regression analysis using a 4-parameter logistic curve fit in ActivityBase XE (IDBS).

[3] = biological target: KDR (Homo sapiens, UniProt P35968); assay: KDR autophosphorylation ELISA in HUVEC cells; set-up: endogenous in cells; host or cells: HUVEC (Lonza #C2519A); conditions: Table 3 Cellular Activities, VEGF165-stimulated, phospho-KDR ELISA
Description: Human umbilical vein endothelial cells or HUVEC (Lonza #C2519A) were seeded at 2×10^4 cells/well onto 96-well plates (Corning #3904), in EGM-2 growth medium (Lonza #CC-3162) containing 1% Penicillin Streptomycin (Thermo Fisher #15140-122). HUVEC cells were incubated at 37° C., 5% CO2 for 24 h and then starved for 24 h in serum-free EBM-2 basal medium (Lonza #CC-3156) containing 1% Penicillin Streptomycin. Test compounds were serially diluted to produce an 8-point dose curve in fresh serum-free medium to a final concentration of 0.3% DMSO (vehicle) and added to the cells and incubated for 1 h. Cells were then stimulated with 100 ng/mL recombinant human VEGF165 (R&D Systems #293-VE-500) for 5 min, washed with cold PBS, and immediately lysed with 130 μL of cold 1× lysis buffer [20 mM Tris, 137 mM sodium chloride, 2 mM EDTA, 10% glycerol, 1% NP-40 alternative, 1 mM activated sodium orthovanadate, 1 mM PefaBloc SC (Sigma-Aldrich #11429868001), protease/phosphatase inhibitor tablet (Thermo Fisher #A32959)]. Lysates were collected and 100 μL/well added into the human phospho-KDR DuoSet IC ELISA (R&D Systems #DYC1766-2). Assay was performed according to manufacturer's instructions and sample phospho-KDR concentrations were extrapolated using human phospho-KDR control (R&D Systems #841421) as a standard. Positive control wells (100% activity) contained VEGF165-stimulated, DMSO-treated cell lysates. Negative control wells (0% activity) contained non-stimulated cell lysates. IC50 values were calculated by nonlinear regression analysis using a 4-parameter logistic curve fit in ActivityBase XE (IDBS).

Sequence of KDR (P35968 20-1356): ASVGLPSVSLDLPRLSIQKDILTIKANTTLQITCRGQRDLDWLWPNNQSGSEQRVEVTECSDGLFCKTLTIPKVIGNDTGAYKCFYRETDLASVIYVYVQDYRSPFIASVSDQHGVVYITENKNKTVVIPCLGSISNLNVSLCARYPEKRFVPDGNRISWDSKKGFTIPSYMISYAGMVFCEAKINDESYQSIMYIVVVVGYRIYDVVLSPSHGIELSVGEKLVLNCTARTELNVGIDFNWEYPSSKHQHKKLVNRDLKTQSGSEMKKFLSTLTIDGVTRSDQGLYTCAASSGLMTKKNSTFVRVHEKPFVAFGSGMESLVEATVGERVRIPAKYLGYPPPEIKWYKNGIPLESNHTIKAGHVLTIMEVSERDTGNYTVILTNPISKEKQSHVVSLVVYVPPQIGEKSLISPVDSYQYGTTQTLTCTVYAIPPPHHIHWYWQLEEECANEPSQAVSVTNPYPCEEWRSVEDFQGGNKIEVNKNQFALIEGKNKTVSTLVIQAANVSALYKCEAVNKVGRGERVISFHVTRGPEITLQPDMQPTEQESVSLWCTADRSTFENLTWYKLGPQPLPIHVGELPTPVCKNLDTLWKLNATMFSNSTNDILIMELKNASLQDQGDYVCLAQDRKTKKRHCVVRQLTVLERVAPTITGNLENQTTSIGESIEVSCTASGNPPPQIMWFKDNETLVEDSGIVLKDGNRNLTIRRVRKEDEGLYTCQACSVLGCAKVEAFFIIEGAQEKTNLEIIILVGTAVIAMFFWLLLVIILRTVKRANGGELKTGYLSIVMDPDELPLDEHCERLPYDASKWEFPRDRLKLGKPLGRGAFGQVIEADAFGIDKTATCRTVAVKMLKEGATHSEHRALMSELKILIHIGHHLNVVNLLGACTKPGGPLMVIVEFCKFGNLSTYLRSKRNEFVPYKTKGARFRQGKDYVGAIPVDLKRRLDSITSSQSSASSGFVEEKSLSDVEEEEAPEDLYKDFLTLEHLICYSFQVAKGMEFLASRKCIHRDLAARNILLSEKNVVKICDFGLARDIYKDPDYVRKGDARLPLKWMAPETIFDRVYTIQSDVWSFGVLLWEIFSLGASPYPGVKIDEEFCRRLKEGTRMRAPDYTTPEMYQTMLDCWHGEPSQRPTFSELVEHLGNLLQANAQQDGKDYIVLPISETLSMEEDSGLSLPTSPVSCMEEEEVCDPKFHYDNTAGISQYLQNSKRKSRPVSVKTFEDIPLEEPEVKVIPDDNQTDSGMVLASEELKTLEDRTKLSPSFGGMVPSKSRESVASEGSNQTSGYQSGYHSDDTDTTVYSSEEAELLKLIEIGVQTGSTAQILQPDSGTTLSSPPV
Sequence of Met (P08581 25-1390): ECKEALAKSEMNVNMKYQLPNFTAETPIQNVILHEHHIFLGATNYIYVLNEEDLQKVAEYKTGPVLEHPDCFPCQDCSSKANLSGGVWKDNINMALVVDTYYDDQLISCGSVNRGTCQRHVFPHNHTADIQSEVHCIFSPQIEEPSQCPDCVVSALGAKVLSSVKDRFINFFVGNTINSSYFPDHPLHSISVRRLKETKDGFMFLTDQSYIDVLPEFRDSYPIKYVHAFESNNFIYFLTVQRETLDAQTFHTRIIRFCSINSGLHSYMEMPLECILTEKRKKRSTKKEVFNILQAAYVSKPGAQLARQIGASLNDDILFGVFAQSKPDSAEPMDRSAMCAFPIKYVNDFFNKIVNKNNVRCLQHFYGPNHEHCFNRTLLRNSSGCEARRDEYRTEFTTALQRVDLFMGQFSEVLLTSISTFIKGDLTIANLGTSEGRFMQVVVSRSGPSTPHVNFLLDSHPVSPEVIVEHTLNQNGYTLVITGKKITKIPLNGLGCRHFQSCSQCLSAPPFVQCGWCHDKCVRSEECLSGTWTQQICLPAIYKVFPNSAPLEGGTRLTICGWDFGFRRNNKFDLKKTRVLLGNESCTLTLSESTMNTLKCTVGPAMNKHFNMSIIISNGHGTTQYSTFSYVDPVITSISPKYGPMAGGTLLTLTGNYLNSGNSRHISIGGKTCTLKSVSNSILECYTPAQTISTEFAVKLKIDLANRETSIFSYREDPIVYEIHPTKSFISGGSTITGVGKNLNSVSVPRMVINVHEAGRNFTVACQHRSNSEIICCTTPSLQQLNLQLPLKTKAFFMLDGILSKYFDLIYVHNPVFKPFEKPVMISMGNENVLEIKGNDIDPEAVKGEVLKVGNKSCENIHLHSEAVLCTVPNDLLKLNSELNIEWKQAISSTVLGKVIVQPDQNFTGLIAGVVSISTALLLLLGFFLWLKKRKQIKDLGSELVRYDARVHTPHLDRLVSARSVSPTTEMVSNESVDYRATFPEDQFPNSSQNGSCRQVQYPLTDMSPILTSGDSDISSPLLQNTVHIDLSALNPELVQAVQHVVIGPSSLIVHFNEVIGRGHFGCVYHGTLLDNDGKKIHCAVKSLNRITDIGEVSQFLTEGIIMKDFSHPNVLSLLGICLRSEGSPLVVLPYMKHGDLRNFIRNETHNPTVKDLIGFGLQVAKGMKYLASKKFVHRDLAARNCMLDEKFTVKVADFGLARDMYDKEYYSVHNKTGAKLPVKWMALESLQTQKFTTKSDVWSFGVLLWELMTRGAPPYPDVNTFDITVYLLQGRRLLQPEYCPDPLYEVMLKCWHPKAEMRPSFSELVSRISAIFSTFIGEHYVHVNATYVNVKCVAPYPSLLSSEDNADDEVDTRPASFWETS

SMILES: COCc1nc(C)c(-c2ncccc2C)c(O)c1C(=O)Nc1ccc(Oc2ccnc3cc(OC)c(OC)nc23)c(F)c1 [Compound 196, N-[4-[(6,7-Dimethoxy-1,5-naphthyridin-4-yl)oxy]-3-fluorophenyl]-4-hydroxy-2-(methoxymethyl)-6-methyl-5-(3-methylpyridin-2-yl)pyridine-3-carboxamide]
- IC50 [1]: ≤ 100 nM
- IC50 [2]: ≤ 100 nM
- IC50 [3]: ≤ 100 nM

SMILES: COCCOc1cnc2c(Oc3ccc(NC(=O)c4c(C)n(C)c(C)c(-c5ccco5)c4=O)cc3F)ccnc2c1 [Compound 266, N-[3-Fluoro-4-[[7-(2-methoxyethoxy)-1,5-naphthyridin-4-yl]oxy]phenyl]-5-(furan-2-yl)-1,2,6-trimethyl-4-oxopyridine-3-carboxamide]
- IC50 [1]: ≤ 100 nM
- IC50 [2]: ≤ 100 nM
- IC50 [3]: 300 to 1000 nM

SMILES: COc1cc2nccc(Oc3ccc(NC(=O)c4c5n(cc(-c6ccsc6)c4=O)CCOC5)cc3)c2nc1OC [Compound 301, N-[4-[(6,7-Dimethoxy-1,5-naphthyridin-4-yl)oxy]phenyl]-8-oxo-7-thiophen-3-yl-3,4-dihydro-1H-pyrido[2,1-c][1,4]oxazine-9-carboxamide]
- IC50 [1]: ≤ 100 nM
- IC50 [2]: ≤ 100 nM
- IC50 [3]: 300 to 1000 nM

SMILES: COc1cc2nccc(Oc3ccc(NC(=O)c4cc(C(C)=O)c(C)n(-c5ccoc5)c4=O)cc3)c2nc1OC [Compound 239, 5-Acetyl-N-[4-[(6,7-dimethoxy-1,5-naphthyridin-4-yl)oxy]phenyl]-1-(furan-3-yl)-6-methyl-2-oxopyridine-3-carboxamide]
- IC50 [1]: 300 to 1000 nM
- IC50 [2]: 300 to 1000 nM
- IC50 [3]: 300 to 1000 nM

SMILES: COc1cc2nccc(Oc3ccc(NC(=O)c4c(C)ncc(-c5ccc(C)s5)c4O)cc3F)c2nc1OC [Compound 124, N-[4-[(6,7-Dimethoxy-1,5-naphthyridin-4-yl)oxy]-3-fluorophenyl]-4-hydroxy-2-methyl-5-(5-methylthiophen-2-yl)pyridine-3-carboxamide]
- IC50 [1]: ≤ 100 nM
- IC50 [2]: ≤ 100 nM
- IC50 [3]: ≤ 100 nM

SMILES: COc1cc2nccc(Oc3ccc(NC(=O)c4c(C)ncc(-c5ccc(C=O)o5)c4O)cc3F)c2nc1OC [Compound 121, N-[4-[(6,7-Dimethoxy-1,5-naphthyridin-4-yl)oxy]-3-fluorophenyl]-5-(5-formylfuran-2-yl)-4-hydroxy-2-methylpyridine-3-carboxamide]
- IC50 [1]: 100 to 300 nM
- IC50 [2]: ≤ 100 nM
- IC50 [3]: ≤ 100 nM

SMILES: COc1cc2nccc(Oc3ccc(NC(=O)c4c5n(c(C)c(-c6ccoc6)c4=O)CCOC5)cc3F)c2nc1OC [Compound 308, N-[4-[(6,7-Dimethoxy-1,5-naphthyridin-4-yl)oxy]-3-fluorophenyl]-7-(furan-3-yl)-6-methyl-8-oxo-3,4-dihydro-1H-pyrido [2,1-c][1,4]oxazine-9-carboxamide]
- IC50 [1]: ≤ 100 nM
- IC50 [2]: ≤ 100 nM
- IC50 [3]: 300 to 1000 nM

SMILES: COc1cnc2c(Oc3ccc(NC(=O)c4c(C)n(C)c(C)c(-c5ccco5)c4=O)cc3F)ccnc2c1 [Compound 162, N-[3-Fluoro-4-[(7-methoxy-1,5-naphthyridin-4-yl)oxy]phenyl]-5-(furan-2-yl)-1,2,6-trimethyl-4-oxopyridine-3-carboxamide]
- IC50 [1]: ≤ 100 nM
- IC50 [2]: ≤ 100 nM
- IC50 [3]: 300 to 1000 nM

SMILES: COCc1nc(C)c(-c2ccnc(C)c2)c(O)c1C(=O)Nc1ccc(Oc2ccnc3cc(OC)c(OC)nc23)c(F)c1 [Compound 198, N-[4-[(6,7-Dimethoxy-1,5-naphthyridin-4-yl)oxy]-3-fluorophenyl]-4-hydroxy-2-(methoxymethyl)-6-methyl-5-(2-methylpyridin-4-yl)pyridine-3-carboxamide]
- IC50 [1]: ≤ 100 nM
- IC50 [2]: ≤ 100 nM
- IC50 [3]: ≤ 100 nM

SMILES: COc1cnc2c(Oc3ccc(NC(=O)c4c(C)n(C)c(C)c(-c5ccco5)c4=O)cc3)ccnc2c1 [Compound 161, 5-(Furan-2-yl)-N-[4-[(7-methoxy-1,5-naphthyridin-4-yl)oxy]phenyl]-1,2,6-trimethyl-4-oxopyridine-3-carboxamide]
- IC50 [1]: ≤ 100 nM
- IC50 [2]: ≤ 100 nM
- IC50 [3]: 300 to 1000 nM

SMILES: COCc1nc(C)c(-c2cccc(C)n2)c(O)c1C(=O)Nc1ccc(Oc2ccnc3cc(OC)c(OC)nc23)c(F)c1 [Compound 197, N-[4-[(6,7-Dimethoxy-1,5-naphthyridin-4-yl)oxy]-3-fluorophenyl]-4-hydroxy-2-(methoxymethyl)-6-methyl-5-(6-methylpyridin-2-yl)pyridine-3-carboxamide]
- IC50 [1]: ≤ 100 nM
- IC50 [2]: ≤ 100 nM
- IC50 [3]: ≤ 100 nM
